What was measured:
Assay type in all cases: cell-based
[1] = target: T1, 17β-hydroxysteroid dehydrogenase type 2 (17β-HSD type 2) (Homo sapiens, UniProt P37059); experiment: Inhibition of 17β-HSD type 2 in MCF-7 cells stably expressing the isoenzyme (tritium labeled estradiol conversion, HPLC); conditions: MCF7, MCF-7 cells expressing 17β-HSD type 2, 2 nM tritium labeled estradiol; for inhibition at 1 µM: 1 μM test compound, read-out: % Inhibition HSD2 1 μM; for inhibition at 10 µM: 10 μM test compound, read-out: % Inhibition HSD2 10 μM
T1 construct: expressed in transfected cells; host or cells: MCF-7
T1 sequence (P37059 1-387): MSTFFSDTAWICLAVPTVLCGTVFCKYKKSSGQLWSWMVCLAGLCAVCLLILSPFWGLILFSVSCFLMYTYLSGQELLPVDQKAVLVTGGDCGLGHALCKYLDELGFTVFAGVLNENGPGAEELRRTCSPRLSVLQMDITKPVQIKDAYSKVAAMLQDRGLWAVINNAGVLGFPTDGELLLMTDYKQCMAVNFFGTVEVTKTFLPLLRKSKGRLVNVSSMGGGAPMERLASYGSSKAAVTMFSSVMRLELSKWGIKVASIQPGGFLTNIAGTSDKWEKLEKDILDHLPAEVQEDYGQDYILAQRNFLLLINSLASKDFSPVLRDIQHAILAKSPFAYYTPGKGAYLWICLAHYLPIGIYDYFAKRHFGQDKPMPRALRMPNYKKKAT
Description: (§1) Biological Testing Materials and Methods 1. Inhibition of the 17β-hydroxysteroid dehydrocienase type 1, type 2 and type 3 enzyme
(§2) The compounds were screened in respect of 17β-HSD enzyme activity in vitro on established MCF-7 cell lines, each stably expressing one of the respective 17β-HSD isoenzymes. The interconversion of substrate by each isoenzyme and the 17β-HSD inhibiting activity of chemical compounds in these cell lines were detected by HPLC system.
(§3) Varying amounts of the test compounds were incubated in the growth medium of the 17β-HSD expressing cells together tritium labeled substrate (2 nM estrone for 17β-HSD type 1; 2 nM estradiol for 17β-HSD type 2; and 2 nM androstenedione for 17β-HSD type 3). The medium samples were removed after exact incubation time and the reaction is stopped by trichloroacetic acid (TCA). The samples were analyzed by HPLC-coupled flow scintillation analysis.
(§4) For each enzyme type, the HSD-inhibiting activity of an individual test compound was calculated by comparing the conversion of a control sample without any test compound (referred to as “Negative Control”) to the (reduced) conversion of the test sample containing the particular compound to be tested (referred to as “Test Sample”).
(§5) Two concentrations of each compound were used. The number of the compound refers to the numbers indicated in the Experimental Section.

[2] = target: T2, 17β-hydroxysteroid dehydrogenase type 1 (17β-HSD type 1) (Homo sapiens, UniProt P14061); experiment: Inhibition of 17β-HSD type 1 in MCF-7 cells stably expressing the isoenzyme (tritium labeled estrone conversion, HPLC); conditions: MCF7, MCF-7 cells expressing 17β-HSD type 1, 2 nM tritium labeled estrone; for inhibition at 1 µM: 1 μM test compound, read-out: % Inhibition HSD1 1 μM; for inhibition at 10 µM: 10 μM test compound, read-out: % Inhibition HSD1 10 μM
T2 construct: expressed in transfected cells; host or cells: MCF-7
T2 sequence (P14061 1-328): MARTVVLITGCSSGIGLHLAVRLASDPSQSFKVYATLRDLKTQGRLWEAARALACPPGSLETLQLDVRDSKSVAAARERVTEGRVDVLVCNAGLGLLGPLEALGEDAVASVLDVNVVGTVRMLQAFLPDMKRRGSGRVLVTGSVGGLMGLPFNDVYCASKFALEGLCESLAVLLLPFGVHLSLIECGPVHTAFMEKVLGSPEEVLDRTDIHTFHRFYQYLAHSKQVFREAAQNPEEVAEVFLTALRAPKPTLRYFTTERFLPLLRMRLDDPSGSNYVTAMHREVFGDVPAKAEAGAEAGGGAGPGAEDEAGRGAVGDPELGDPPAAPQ
Description: as §1, §2, §3, §4, §5

[3] = target: T3, 17β-hydroxysteroid dehydrogenase type 3 (17β-HSD type 3) (Homo sapiens, UniProt P37058); experiment: Inhibition of 17β-HSD type 3 in MCF-7 cells stably expressing the isoenzyme (tritium labeled androstenedione conversion, HPLC); conditions: MCF7, MCF-7 cells expressing 17β-HSD type 3, 2 nM tritium labeled androstenedione; for inhibition at 1 µM: 1 μM test compound, read-out: % Inhibition HSD3 1 μM; for inhibition at 10 µM: 10 μM test compound, read-out: % Inhibition HSD3 10 μM
T3 construct: expressed in transfected cells; host or cells: MCF-7
T3 sequence (P37058 1-310): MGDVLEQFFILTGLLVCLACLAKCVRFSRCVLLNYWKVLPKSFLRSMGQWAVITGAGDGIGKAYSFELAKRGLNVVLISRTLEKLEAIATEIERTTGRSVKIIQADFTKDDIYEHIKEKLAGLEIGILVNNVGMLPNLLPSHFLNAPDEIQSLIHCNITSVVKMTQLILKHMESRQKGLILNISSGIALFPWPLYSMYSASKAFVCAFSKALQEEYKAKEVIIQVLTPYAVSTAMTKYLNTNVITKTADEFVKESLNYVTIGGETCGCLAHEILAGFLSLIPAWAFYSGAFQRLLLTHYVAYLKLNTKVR
Description: as §1, §2, §3, §4, §5

SMILES	inhibition at 1 µM [1] [%]	inhibition at 10 µM [1] [%]	inhibition at 1 µM [2] [%]	inhibition at 10 µM [2] [%]	inhibition at 1 µM [3] [%]	inhibition at 10 µM [3] [%]
O=C1c2sc3nc(-c4cccs4)n(Cc4ccccc4)c(=O)c3c2CCC1Br (centres unmarked)	32.8	48.4	28.5	23.2	21.8	25.6
CCCCn1c(-c2cccs2)nc2sc3c(c2c1=O)CCCC3	18.5	20.5	14.9	28.6	3.1	14.7
COc1cc(-c2nc3sc4c(c3c(=O)n2Cc2ccccc2)CCCC4)cc(OC)c1OC [No. 1, 3-benzyl-2-(3,4,5-trimethoxyphenyl)-5,6,7,8-tetrahydro-3H-benzo[4,5]thieno[2,3-d]pyrimidin-4-one]	7.3	17.4	0.8	21.1	-8.8	6.3
COc1cc(-c2nc3sc4c(c3c(=O)n2Cc2ccccc2)CCCC4=O)cc(OC)c1OC [No. 2, 3-Benzyl-2-(3,4,5-trimethoxyphenyl)-6,7-dihydro-3H,5H-benzo[4,5]thieno[2,3-d]pyrimidine-4,8-dione]	1.5	33.2	17.3	58.7	11.7	40.5
COc1cc(-c2nc3sc4c(c3c(=O)n2Cc2ccccc2)CCC(C=O)=C4Cl)cc(OC)c1OC [No. 3, 3-Benzyl-8-chloro-4-oxo-2-(3,4,5-trimethoxyphenyl)-3,4,5,6-tetrahydro-benzo[4,5]thieno[2,3-d]pyrimidine-7-carbaldehyde]	-3.2	7.8	3.2	38.4	-19.4	29.1
COc1cc(-c2nc3sc4c(c3c(=O)n2Cc2ccccc2)CCC(C=O)=C4Oc2ccccc2)cc(OC)c1OC [No. 4, 3-Benzyl-4-oxo-8-phenoxy-2-(3,4,5-trimethoxyphenyl)-3,4,5,6-tetrahydro-benzo[4,5]thieno[2,3-d]pyrimidine-7-carbaldehyde]	-4.3	20.1	20.1	30.7	-7.2	6.5
COc1cc(-c2nc3sc4c(Oc5ccccc5)c(C=O)ccc4c3c(=O)n2Cc2ccccc2)cc(OC)c1OC [No. 5, 3-Benzyl-4-oxo-8-phenoxy-2-(3,4,5-trimethoxyphenyl)-3,4-dihydro-benzo[4,5]thieno[2,3-d]pyrimidine-7-carbaldehyde]	-0.9	17	-1	26.1	9.4	9.1
CCSC1=C(C=O)CCc2c1sc1nc(-c3cc(OC)c(OC)c(OC)c3)n(Cc3ccccc3)c(=O)c21 [No. 6, 3-Benzyl-8-ethylsulfanyl-4-oxo-2-(3,4,5-trimethoxyphenyl)-3,4,5,6-tetrahydro-benzo[4,5]thieno[2,3-d]pyrimidine-7-carbaldehyde]	3.8	29.7	31.8	44.2	2.1	47.1
CCOC1=C(C=O)CCc2c1sc1nc(-c3cc(OC)c(OC)c(OC)c3)n(Cc3ccccc3)c(=O)c21 [No. 7, 3-Benzyl-8-ethoxy-4-oxo-2-(3,4,5-trimethoxyphenyl)-3,4,5,6-tetrahydro-benzo[4,5]thieno[2,3-d]pyrimidine-7-carbaldehyde]	8.2	27	12.5	38.4	-17.6	5.7
COc1cc(-c2nc3sc4c(c3c(=O)n2Cc2ccccc2)CCC(C=O)=C4Sc2ccccc2)cc(OC)c1OC [No. 8, 3-Benzyl-4-oxo-8-phenylsulfanyl-2-(3,4,5-trimethoxyphenyl)-3,4,5,6-tetrahydro-benzo[4,5]thieno[2,3-d]pyrimidine-7-carbaldehyde]	4.9	17.1	30.8	27.4	2.5	4.8
COc1cc(-c2nc3sc4c(Sc5ccccc5)c(C=O)ccc4c3c(=O)n2Cc2ccccc2)cc(OC)c1OC [No. 9, 3-Benzyl-4-oxo-8-phenylsulfanyl-2-(3,4,5-trimethoxyphenyl)-3,4-dihydro-benzo[4,5]thieno[2,3-d]pyrimidine-7-carbaldehyde]	-2.6	-8.9	31.9	29.9	2.7	1.4
COc1cc(-c2nc3sc4c(c3c(=O)n2-c2ccccc2)CCCC4)cc(OC)c1OC [No. 10, 3-Phenyl-2-(3,4,5-trimethoxyphenyl)-5,6,7,8-tetrahydro-3H-benzo[4,5]thieno[2,3-d]pyrimidin-4-one]	18.1	23.7	12.7	35.1	-4.4	10.9
COc1cc(-c2nc3sc4c(c3c(=O)n2-c2ccccc2)CCCC4=O)cc(OC)c1OC [No. 11, 3-Phenyl-2-(3,4,5-trimethoxyphenyl)-6,7-dihydro-3H,5H-benzo[4,5]thieno[2,3-d]pyrimidine-4,8-dione]	-5.3	12.3	14.2	27.7	-5.6	12.8
COc1ccc(-c2nc3sc4c(c3c(=O)n2Cc2ccccc2)CCCC4)cc1 [No. 12, 3-Benzyl-2-(p-methoxyphenyl)-5,6,7,8-tetrahydro-3H-benzo[4,5]thieno[2,3-d]pyrimidin-4-one]	4.2	12.3	6.3	34.5	3.1	55.5
COc1cc(-c2nc3sc4ccccc4c3c(=O)n2Cc2ccccc2)c(Br)c(OC)c1OC [No. 51, 3-benzyl-2-(2-bromo-3,4,5-trimethoxyphenyl)-3H-benzo[4,5]thieno[2,3-d]pyrimidin-4-one]	16.6	30.7	9.9	9.1	–	–
COc1cc(-c2nc3sc4c(O)cccc4c3c(=O)n2CC(C)C)cc(OC)c1OC [No. 151, 8-Hydroxy-3-isobutyl-2-(3,4,5-trimethoxyphenyl)-3H-benzo[4,5]thieno[2,3-d]pyrimidin-4-one]	14.6	22.1	21.2	52.7	–	–

Source: patent US7524853B2 (Solvay Pharmaceuticals B.V., priority 2003, dated 2009)
